The results in this text go back to patent US20260200921A1, “SUBSTITUTED AMINOPYRIDINE COMPOUNDS AS AKT INHIBITORS” (Atavistik Bio, Inc., priority 2023, published 2026).

One assay deals with T1, AKT1 E17K (Homo sapiens, UniProt P31749, E17K).
T1 construct: Purified human recombinant kinase full-length AKT1 E17K was expressed in insect cells; made in house; host or cells: insect cells
Kind of assay: AKT1 E17K kinase assay (TR-FRET, Lance). It is filed as biochemical. To be noted: full-length human recombinant AKT1 E17K activated by PDPK1; Ulight-CREBtide substrate; either 50 μM ATP or 2 mM ATP. As for the experimental part:
AKT1 E17K kinase assay: Inhibitory effects of compounds on AKT1 E17K were undertaken in a 10-pt dose response kinase activity assay measuring phospho-peptide product formation based on TR-FRET signal as described in the following paragraph.
(§1) Purified human recombinant kinase full-length AKT1 E17K was expressed in insect cells and activated in vitro by PDPK1. Ulight™-CREBtide (PerkinElmer, catalog number TRF0107) was used as the peptide substrate. The reaction buffer consisted of 50 mM HEPES pH 7.5, 10 mM MgCl2, 0.01% Triton X-100, 0.01% BSA, 2 mM DTT, 0.6 nM AKT1 E17K, 50 nM Ulight™-CREBtide and either 50 μM ATP or 2 mM ATP. The compound solution was prepared as 10 mM DMSO stock. For the assay, a 1:3 serial dilution 10-pt dose response of test compounds, in duplicate, for each concentration were dispensed into a 384-well plate (Corning, catalog number 4513). Final DMSO concentration in the assay was 1%. The enzyme mixture (5 μL, 1.2 nM) were added and the mixture was incubated for 15 min at RT prior to the start of the kinase reaction by the addition of 5 μL substrate mixture (100 nM Ulight™-CREBtide). The reaction was stopped after 60 min of incubation at RT by the addition of 10 μL of Detection Mix (PerkinElmer, #CR97-100) consisting of Europium-anti-phospho-CREB (Ser133) (Perkin Elmer, catalog numberTRF0200). Incubation with the detection mix for a further 60 min allowed binding of antibody to the phospho-Ulight™ CREBtide. The fluorescence emissions at 620 nm and 665 nm after excitation at 350 nm was measured using Envision reader. The ratio of the emissions at 665 nm and at 620 nm provided the measure for the amount of phosphorylated CREBtide product of AKT1 E17K kinase activity. To determine the IC50 values, the data was normalized (enzyme reaction without inhibitor=0% inhibition, all other assay components but no enzyme=100% inhibition) and IC50 values were calculated by a 4-parameter fit using an in-house developed protocol.
(In general: TR-FRET usually uses a lanthanide donor and a delayed reading to cut background.)

The next assay concerns the target T2, wildtype AKT1 (Homo sapiens, UniProt P31749).
T2 construct: Purified human recombinant kinase full-length wildtype AKT1 was expressed in insect cells; made in house; host or cells: insect cells
The assay can be described thus: AKT1 kinase assay, wildtype (TR-FRET, Lance). Format: biochemical. To be noted: full-length human recombinant wildtype AKT1 activated by PDPK1; Ulight-CREBtide substrate; either 50 μM ATP or 2 mM ATP. As for the experimental part: AKT1 kinase assay: Inhibitory effects of compounds on wildtype AKT1 were undertaken in a 10-pt dose response kinase activity assay measuring phospho-peptide product formation based on TR-FRET signal as described in the following paragraph.
as §1, with “full-length wildtype” for “full-length”, “AKT1” for “AKT1 E17K”, “nM AKT1,” for “nM AKT1 E17K,”, “Mix (PerkinElmer.” for “Mix (PerkinElmer,”

T1 sequence (P31749 whole entry E17K): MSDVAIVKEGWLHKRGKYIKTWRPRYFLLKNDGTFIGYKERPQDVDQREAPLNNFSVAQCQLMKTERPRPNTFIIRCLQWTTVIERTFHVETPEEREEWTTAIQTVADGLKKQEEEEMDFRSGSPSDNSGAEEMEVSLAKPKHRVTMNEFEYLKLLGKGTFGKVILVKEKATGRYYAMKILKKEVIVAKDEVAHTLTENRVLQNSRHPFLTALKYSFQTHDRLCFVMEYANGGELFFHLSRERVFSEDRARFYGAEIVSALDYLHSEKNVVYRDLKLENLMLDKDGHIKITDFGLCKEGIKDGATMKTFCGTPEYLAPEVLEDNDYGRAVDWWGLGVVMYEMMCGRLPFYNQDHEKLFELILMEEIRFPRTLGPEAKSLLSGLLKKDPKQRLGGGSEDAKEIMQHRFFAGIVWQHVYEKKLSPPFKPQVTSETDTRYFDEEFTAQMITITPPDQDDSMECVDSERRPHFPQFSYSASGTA
T2 sequence (P31749 whole entry): as the sequence (P31749 whole entry E17K) above, with K17E counted along it

As usually defined, the IC50 is the midpoint of a concentration-inhibition curve. For the compound `Cc1cc(O)n(-c2ccc(C(=O)NCc3ccc(-n4c(-c5cccnc5N)nc5ccc(-c6ccccc6)nc54)cc3)cc2)n1` [Compound I-1, N-(4-(2-(2-aminopyridin-3-yl)-5-phenyl-3H-imidazo[4,5-b]pyridin-3-yl)benzyl)-4-(3-methyl-5-oxo-4,5-dihydro-1H-pyrazol-1-yl)benzamide], the results for the IC50 on AKT1 E17K and at wildtype AKT1 were 0.05 to 0.2 µM and < 0.5 µM, respectively.

With `COc1cc(C)nn1-c1ccc(C(=O)NCc2ccc(-n3c(-c4cccnc4N)nc4ccc(-c5ccccc5)nc43)cc2)cc1` [Compound I-2, N-(4-(2-(2-aminopyridin-3-yl)-5-phenyl-3H-imidazo[4,5-b]pyridin-3-yl)benzyl)-4-(5-methoxy-3-methyl-1H-pyrazol-1-yl)benzamide], the values for the half-inhibitory concentration (IC50) on AKT1 E17K and at wildtype AKT1 were 0.2 to 0.5 µM and < 0.5 µM, respectively.

Regarding `Cc1cc(O)n(-c2cccc(C(=O)NCc3ccc(-n4c(-c5cccnc5N)nc5ccc(-c6ccccc6)nc54)cc3)c2)n1` [Compound I-3, N-(4-(2-(2-aminopyridin-3-yl)-5-phenyl-3H-imidazo[4,5-b]pyridin-3-yl)benzyl)-3-(5-hydroxy-3-methyl-1H-pyrazol-1-yl)benzamide], the IC50 at AKT1 E17K was ≥ 0.5 µM; on wildtype AKT1 it was < 0.5 µM.

Turning to `Cc1cc(O)n(-c2ccc(C(=O)NCc3ccc(-n4c(-c5cccnc5N)nc5ccc(-c6ccccc6)nc54)cc3)c(F)c2)n1` [Compound I-4, N-[[4-[2-(2-amino-3-pyridyl)-5-phenyl-imidazo[4,5-b]pyridin-3-yl]phenyl]methyl]-2-fluoro-4-(5-hydroxy-3-methyl-pyrazol-1-yl)benzamide], the values for the IC50 at AKT1 E17K and on wildtype AKT1 were 0.05 to 0.2 µM and < 0.5 µM, respectively.

Consider `Cc1cc(O)n(-c2ccc(C(=O)NCc3ccc(-n4c(-c5cccnc5N)nc5ccc(-c6ccccc6)nc54)cc3)cc2F)n1` [Compound I-5, N-[[4-[2-(2-amino-3-pyridyl)-5-phenyl-imidazo[4,5-b]pyridin-3-yl]phenyl]methyl]-3-fluoro-4-(5-hydroxy-3-methyl-pyrazol-1-yl)benzamide], for which the IC50 at AKT1 E17K is 0.05 to 0.2 µM; at wildtype AKT1, < 0.5 µM.

On to `Nc1ncccc1-c1nc2ccc(-c3ccccc3)nc2n1-c1ccc(CNC(=O)c2ccc(-n3nc(C(F)(F)F)cc3O)cc2)cc1` [Compound I-6, N-(4-(2-(2-aminopyridin-3-yl)-5-phenyl-3H-imidazo[4,5-b]pyridin-3-yl)benzyl)-4-(5-hydroxy-3-(trifluoromethyl)-1H-pyrazol-1-yl)benzamide], for which the IC50 is 0.2 to 0.5 µM on AKT1 E17K and < 0.5 µM at wildtype AKT1.

In the case of `Nc1ncccc1-c1nc2ccc(-c3ccccc3)nc2n1-c1ccc(CNC(=O)c2cccc(-n3nc(C(F)(F)F)cc3O)c2)cc1` [Compound I-7, N-(4-(2-(2-aminopyridin-3-yl)-5-phenyl-3H-imidazo[4,5-b]pyridin-3-yl)benzyl)-3-(5-hydroxy-3-(trifluoromethyl)-1H-pyrazol-1-yl)benzamide], the IC50 is ≥ 0.5 µM at AKT1 E17K and < 0.5 µM at wildtype AKT1.

Regarding `Nc1ncccc1-c1nc2ccc(-c3ccccc3)nc2n1-c1ccc(CNC(=O)c2ccc(-n3nc(-c4ccccc4)cc3O)cc2)cc1` [Compound I-8, N-(4-(2-(2-aminopyridin-3-yl)-5-phenyl-3H-imidazo[4,5-b]pyridin-3-yl)benzyl)-4-(5-hydroxy-3-phenyl-1H-pyrazol-1-yl)benzamide], the IC50 at AKT1 E17K was ≥ 0.5 µM; on wildtype AKT1, < 0.5 µM.

Take `COC(=O)Cc1cc(O)n(-c2ccc(C(=O)NCc3ccc(-n4c(-c5cccnc5N)nc5ccc(-c6ccccc6)nc54)cc3)cc2)n1` [Compound I-9, Methyl 2-(1-(4-((4-(2-(2-aminopyridin-3-yl)-5-phenyl-3H-imidazo[4,5-b]pyridin-3-yl)benzyl)carbamoyl)phenyl)-5-hydroxy-1H-pyrazol-3-yl)acetate]: the IC50 on AKT1 E17K is 0.05 to 0.2 µM; at wildtype AKT1, < 0.5 µM.

On to `Nc1ncccc1-c1nc2ccc(-c3ccccc3)nc2n1-c1ccc(CNC(=O)c2ccc(-n3nc(CC(=O)O)cc3O)cc2)cc1` [Compound I-10, 2-(1-(4-((4-(2-(2-aminopyridin-3-yl)-5-phenyl-3H-imidazo[4,5-b]pyridin-3-yl)benzyl)carbamoyl)phenyl)-5-hydroxy-1H-pyrazol-3-yl)acetic acid], for which the IC50 at AKT1 E17K was < 0.05 µM; on wildtype AKT1, < 0.5 µM.

With `Nc1ncccc1-c1nc2ccc(-c3ccccc3)nc2n1-c1ccc(CNC(=O)c2ccc(-n3cc(C(=O)O)cn3)cc2)cc1` [Compound I-11, 1-(4-((4-(2-(2-aminopyridin-3-yl)-5-phenyl-3H-imidazo[4,5-b]pyridin-3-yl)benzyl)carbamoyl)phenyl)-1H-pyrazole-4-carboxylic acid], the IC50 on AKT1 E17K was < 0.05 µM; at wildtype AKT1, < 0.5 µM.

Regarding `N#Cc1cnn(-c2ccc(C(=O)NCc3ccc(-n4c(-c5cccnc5N)nc5ccc(-c6ccccc6)nc54)cc3)cc2)c1` [Compound I-12, N-(4-(2-(2-aminopyridin-3-yl)-5-phenyl-3H-imidazo[4,5-b]pyridin-3-yl)benzyl)-4-(4-cyano-1H-pyrazol-1-yl)benzamide], the IC50 was 0.2 to 0.5 µM on AKT1 E17K and < 0.5 µM on wildtype AKT1.

Consider `Cc1cc(C#N)n(-c2ccc(C(=O)NCc3ccc(-n4c(-c5cccnc5N)nc5ccc(-c6ccccc6)nc54)cc3)cc2)n1` [Compound I-13, N-(4-(2-(2-aminopyridin-3-yl)-5-phenyl-3H-imidazo[4,5-b]pyridin-3-yl)benzyl)-4-(5-cyano-3-methyl-1H-pyrazol-1-yl)benzamide], for which the IC50 on AKT1 E17K is 0.2 to 0.5 µM; at wildtype AKT1 it was < 0.5 µM.

Regarding `N#Cc1cc(O)n(-c2ccc(C(=O)NCc3ccc(-n4c(-c5cccnc5N)nc5ccc(-c6ccccc6)nc54)cc3)cc2)n1` [Compound I-15, N-(4-(2-(2-aminopyridin-3-yl)-5-phenyl-3H-imidazo[4,5-b]pyridin-3-yl)benzyl)-4-(3-cyano-5-hydroxy-1H-pyrazol-1-yl)benzamide], the values for the IC50 on AKT1 E17K and on wildtype AKT1 were 0.05 to 0.2 µM and < 0.5 µM, respectively.

Turning to `Cc1cc(C(N)=O)n(-c2ccc(C(=O)NCc3ccc(-n4c(-c5cccnc5N)nc5ccc(-c6ccccc6)nc54)cc3)cc2)n1` [Compound I-16, 1-(4-((4-(2-(2-aminopyridin-3-yl)-5-phenyl-3H-imidazo[4,5-b]pyridin-3-yl)benzyl)carbamoyl)phenyl)-3-methyl-1H-pyrazole-5-carboxamide], the IC50 on AKT1 E17K was 0.2 to 0.5 µM; at wildtype AKT1, < 0.5 µM.

`Cc1cc(C(N)=O)nn1-c1ccc(C(=O)NCc2ccc(-n3c(-c4cccnc4N)nc4ccc(-c5ccccc5)nc43)cc2)cc1` [Compound I-17, 1-(4-((4-(2-(2-aminopyridin-3-yl)-5-phenyl-3H-imidazo[4,5-b]pyridin-3-yl)benzyl)carbamoyl)phenyl)-5-methyl-1H-pyrazole-3-carboxamide]: the IC50 at AKT1 E17K was 0.2 to 0.5 µM; on wildtype AKT1, < 0.5 µM.
